Data from patent US5942641A, “Fluorenone derivatives, process for preparing the same and central or peripheral nerve degeneration repair and protective agent” (Otsuka Pharmaceutical Co., Ltd., priority 1993, dated 1999).

Assays:
[1] = target: T1, C-GMP-PDE (type V) (Homo sapiens, UniProt O76074); experiment: Pharmacological test 4: C-GMP-PDE (type V) inhibition action; format: biochemical; conditions: FI fraction from human blood platelet
T1 construct: from tissue; host or cells: human blood platelets (healthy adult), DEAE-cellulose fraction FI
Procedure: (C-GMP-PDE (type V) inhibition action)
The separation and purification of PDE from a human blood platelet was conducted according to a method of Hidaka et al. [Hidaka, H. and Asano, I., Biochem. Biophys. Acta 429, 485-497 (1976)]. That is, a blood platelet derived from a healthy adult was washed with water, floated with a Tris buffer solution and centrifuged. Then, the supernatant thereof was applied to DEAE-cellulose and separated into three fractions, FI, FII and FIII due to concentration gradient of sodium acetate. By using FI having high affinity to C-GMP, the inhibition action of the test compound was examined. The influence of the drug on PDE was represented by the inhibition ratio to PDE activity in the absence of the drug.

[2] = tested on: Nerve cells of the cerebral cortex; experiment: Pharmacological test 1: neurite sprouting (NS) of cultured fetal rat cerebral cortex nerve cells, phase contrast microscopy versus control; format: cell-based; set-up: key: ++: extremely strong in comparison with the control; +: strong in comparison with the control; ±: same as the control; -: inferior to the control; conditions: Dose 10^-6 (mole); 10 days after initiation of culture
Text: Nerve cells of the cerebral cortex were removed aseptically from a fetal rat (17 days-old) and cultured according to a Asou's method [Asou, H. Brain Res., 332; pages 355-357 (1985)]. After the meninx, blood vessel, etc. were removed from the cerebral hemisphere, they were put through a stainless steel mesh (pore size: 140μm). Then, the isolated cells were floated on a culture medium (Eagle's basal medium containing 10% fetal bovine serum and glucose of 1 g/l) and 1.5×10^6 cells were respectively seeded on a dish (diameter: 35 mm) coated with poly-L-lysine to initiate the culture (37° C., 3% CO2). After 24 hours, the culture medium was replaced by a culture medium containing a test compound and cultured for additional 9 days.
10 Days after initiation of the culture, neurite sprouting (NS) was evaluated under phase contrast microscopy by comparing with the control group.

[3] = tested on: hyperoxidation reaction of lipid (microsome fraction); experiment: Pharmacological test 3: antioxidation action, hyperoxidation reaction of lipid due to ascorbic acid induction in liver microsome fraction (TBA value); format: biochemical, Wister rat; conditions: 37° C., 15 minutes; 200 μM ascorbic acid, 20 μM ferrous sulfate; read-out: IC50 (antioxidation, 50% inhibition concentration)
Procedure: (The measurement of antioxidation action)
The antioxidation action was measured using the hyperoxidation reaction of lipid due to ascorbic acid induction [Shimada, O. and Yasuda, H. BBA489, 163-172 (1977)].
Microsome fraction was obtained from a lever of Wister rat by a Kato's method [J. Biochem., 59, 574 (1966)]. This fraction was added to a 60 mM potassium phosphate buffer solution (containing 45 mM potassium chloride, 200 μM ascorbic acid and 20 μM ferrous sulfate) in an amount of 1 mg/ml and the test compound (0.1% dimethyl sulfoxide) was added, and the mixture was incubated at 37° C. for 15 minutes. The same amount of 10% trichloroacetic acid was added and the resultant was centrifuged. A portion of the supernatant was collected and the amount of malondialdehyde due to thiobarbituric acid (TBA value) was measured [Klaassen, C. D. and Plaa, G. L. Biochem. Pharmacol., 18: 2019 (1969)]. The inhibition ratio was calculated by the following formula:
Inhibition ratio={1-(TBA value of specimen)/(TBA value of […]

[4] = tested on: mouse dorsal root ganglion cells; experiment: Pharmacological Test 2: neurite outgrowth in primary culture of mouse dorsal root ganglion cells; format: cell-based, mouse (C57BL/6); set-up: key: +: positive; ±: false positive; -: negative; conditions: Dose 10^-7 (mole); 7 days culture
Procedure: (The measurement of neurite outgrowth in primary culture of mouse dorsal root ganglion cells)
Preparation of cells was conducted according to a method of Horie et al. [H. Horie., FEBS, 296, 23 (1990)]. That is, C57BL/6 male mice aged 10 to 15 weeks were used. They were bleeded to death under ether anesthetization and the backbone from cervical vertebra to sacral vertebra was removed. The capsule of dorsal root ganglion of which ventral root and dorsal root had been cut was stripped in a Ham F12 medium (Flow laboratories) and then ganglia were treated with 0.25% collagenase (Worthington Biochemical Corporation) at 37° C. for 90 minutes. The medium was replaced by a Hank's physiological buffer solution containing no calcium and magnesium and cells were treated with 0.25% trypsin (Flow Laboratories) at room temperature for 20 minutes. A trypsin inhibitor (Sigma, 100 μg/ml) was added to terminate the enzyme reaction and trituration was conducted 20 times using a tapered Pasteur pipette. The medium was replaced again by the Ham F12 medium and cells were put through a nylon mesh (150 μm) to remove a cell mass which had not been separated. Cells were suspended in the Ham F12 medium containing a N1 additive [Bottenstein, J. E., Exp. Cell. Res., 125, 183 (1980)] (kanamycin of 60 μg/ml added).
A poly-1-lysine-coating cell disc as a culture medium which had been subjected to 10 μg/ml laminin (Koken Cell Gen) coating treatment at 37° C. for 3 hours was placed on a 24 well dish and nerve cells (5000 to 10000 cells/dish) were seeded. The test compound (concentration: 0.01 mol/l) was dissolved in dimethyl sulfoxide and diluted with a phosphate buffer solution to adjust to a final concentration, and then added to a culture solution. Cells were cultured in 5% CO2 -95% air phase at 37° C. for 7 days.
For the measurement of neurite outgrowth, the cell disc was washed with a phosphate buffer solution 7 days after initiation of the culture and immobilized with 4% paraformaldehyde at 4° C. for 24 hours, and then immune staining was conducted with Vecstatin ABC kit (Vector) using a neurofilament antibody (200 kD, manufactured by Boehringer Mannheim GmbH). The periphery of the cell disc was restrictively observed under microscopy, and the amount of neurofilament (whole length per well) was evaluated by comparing with the control well according to the following criteria: positive (+), false positive (±) and negative (-).

| IC50 [1] | IC50 [3] | Compound | neurite sprouting (NS) [2] | Neurite outgrowth action [4] |
| --- | --- | --- | --- | --- |
| 3400 nM | 200 nM | C=CCc1cc2c(cc1O)C(=O)c1c-2ccc(O)c1CC=C [Example 47, 1,6-Diallyl-2,7-dihydroxyfluorenone] | + | + |
| 2200 nM | 2100 nM | C=CCc1cc2c(cc1O)C(=O)c1cc(O)c(CC=C)cc1-2 [Example 49] | + | + |
